Test results from ChEMBL document CHEMBL6153062, “Design, Synthesis, and Unprecedented Interactions of Covalent Dipeptide-Based Inhibitors of SARS-CoV-2 Main Protease and Its Variants Displaying Potent Antiviral Activity” (J Med Chem, 2025).
pEC50, pIC50: −log10 of the molar value.

Columns and labels:
[1] = Inhibition of SARS-CoV-2 MPro using Boc-Abu-Tle-Leu-Gln-AMC as substrate preincubated for 5 mins followed by substrate addition and measured after 60 mins; design: species or system Severe acute respiratory syndrome coronavirus 2
[2] = Inhibition of MERS-CoV Main protease using Ac-Abu-Tle-Leu-Gln-ACC as substrate incubated for 15 mins by fluorescence based microplate reader analysis; design: species or system Middle East respiratory syndrome-related coronavirus
[3] = Inhibition of recombinant SARS-CoV-1 Main protease using Ac-Abu-Tle-Leu-Gln-ACC as substrate incubated for 15 mins by fluorescence based microplate reader analysis; design: species or system Severe acute respiratory syndrome-related coronavirus
[4] = system: Severe acute respiratory syndrome coronavirus 2; test: Inhibition of SARS-CoV-2 MPro using Boc-Abu-Tle-Leu-Gln-AMC as substrate assessed as Kinact/Ki ratio preincubated for 5 mins followed by substrate addition and measured after 60 mins; details: time 65.0 min
SARS-CoV-2 = type: functional, organism-based; details: Severe acute respiratory syndrome coronavirus 2, B.1.513, Calu-3
Calu-3 = test: Cytotoxicity against human Calu-3 cells assessed as reduction in cell viability at 10 uM measured after 24 hrs by celltiter-glo assay; type: functional, cell-based

| SMILES | pIC50 [1] | pIC50 [2] | pIC50 [3] | Ratio [4] [M⁻¹ s⁻¹] | pEC50 (SARS-CoV-2) | Activity (Calu-3) |
| --- | --- | --- | --- | --- | --- | --- |
| C=CC(=O)[C@H](Cc1c[nH]c2ccccc12)NC(=O)[C@H](CC(C)C)NC(=O)COc1ccc(Cl)cc1Cl | 6.50 | 5.97 | 7.24 |  |  |  |
| C=CC(=O)[C@H](Cc1ccccc1)NC(=O)[C@H](CC(C)C)NC(=O)c1cc2ccccc2o1 | 6.39 | 6.03 | 7.70 | 9900 |  |  |
| CC(C)C[C@H](NC(=O)c1cc2ccccc2s1)C(=O)N[C@@H](Cc1ccccc1)C(=O)C=CN(C)C | 4.72 |  |  |  |  |  |
| C=CC(=O)[C@H](Cc1ccccc1F)NC(=O)[C@H](CC(C)C)NC(=O)COc1ccc(Cl)cc1Cl | 6.80 |  |  | 13300 |  |  |
| C=CC(=O)[C@H](Cc1ccccc1)NC(=O)[C@H](CC(C)C)NC(=O)/C=C/c1ccc(Cl)cc1Cl | 6.47 |  |  | 7000 |  |  |
| C=CC(=O)[C@H](Cc1ccccc1)NC(=O)[C@H](CC(C)C)NC(=O)c1cc(C(C)(C)C)nn1C | 6.22 |  |  | 5400 |  |  |
| C=CC(=O)[C@H](Cc1ccccc1)NC(=O)[C@H](CC(C)C)NC(=O)c1sc(-c2ccccc2)nc1C | 6.93 |  |  | 29000 |  |  |
| C=CC(=O)[C@H](Cc1ccccc1)NC(=O)[C@H](CC(C)C)NC(=O)C1CC1c1ccccc1 (some centres undefined) | 6.86 |  |  | 14500 |  |  |
| C=CC(=O)[C@H](Cc1ccccc1)NC(=O)[C@H](CC(C)C)NC(=O)COc1ccc(Cl)cc1 | 7.01 | 5.85 | 6.69 |  | 6.74 | Not toxic |
| C=CC(=O)[C@H](Cc1ccccc1)NC(=O)[C@H](CC(C)C)NC(=O)CCc1ccccc1 | 6.73 |  |  | 16100 |  |  |
| C=CC(=O)[C@H](Cc1ccccc1)NC(=O)[C@H](CC(C)C)NC(=O)CCc1ccc(N(C)C)cc1 | 6.82 |  |  | 14700 |  |  |
| C=CC(=O)[C@H](Cc1ccccc1)NC(=O)[C@H](CC(C)C)NC(=O)C1CCc2ccccc2O1 (some centres undefined) | 6.64 |  |  | 14900 |  |  |
| CC(C)C[C@H](NC(=O)CSc1ccccc1)C(=O)N[C@@H](Cc1ccccc1)C(=O)c1nc2ccccc2s1 | < 5.00 |  |  |  |  |  |
| CC(C)C[C@H](NC(=O)c1cc2ccccc2o1)C(=O)N[C@@H](Cc1ccccc1)C(=O)C=CN(C)C | < 5.00 |  |  |  |  |  |
| C=CC(=O)[C@H](Cc1ccccc1)NC(=O)[C@H](CC(C)C)NC(=O)/C=C/c1ccccc1 | 6.88 |  | 6.96 | 9630 |  |  |
| C=CC(=O)[C@H](Cc1ccccc1)NC(=O)[C@H](CC(C)C)NC(=O)/C=C/c1ccc(Cl)cc1 | 7.20 |  |  |  | 6.64 | Not toxic |
| C=CC(=O)[C@H](Cc1ccccc1)NC(=O)[C@H](CC(C)C)NC(=O)c1csc(-c2ccccc2)n1 | 6.82 |  |  | 32500 |  |  |
| C=CC(=O)[C@H](Cc1ccccc1)NC(=O)[C@H](CC(C)C)NC(=O)CCc1ccc(OC(F)(F)F)cc1 | 6.74 |  |  | 14000 |  |  |
| C=CC(=O)[C@H](Cc1ccccc1)NC(=O)[C@H](CC(C)C)NC(=O)c1cc2ccccc2s1 | 6.66 |  |  | 21700 |  |  |
| CC(C)C[C@H](NC(=O)OCc1ccccc1)C(=O)N[C@H](C=O)C[C@@H]1CCNC1=O |  | 7.11 | 7.36 |  |  |  |
| C=CC(=O)[C@H](Cc1ccccc1)NC(=O)[C@H](CC(C)C)NC(=O)c1ccc(-c2ccccc2)o1 | 6.44 | 6.27 | 7.66 | 16400 |  |  |
| CC(C)C(=O)OC[C@H]1O[C@@H](n2cc/c(=N\O)[nH]c2=O)[C@H](O)[C@@H]1O [MOLNUPIRAVIR] |  |  |  |  | 8.49 |  |
| C=CC(=O)[C@H](Cc1ccccc1)NC(=O)[C@H](CC(C)C)NC(=O)COc1cccc(N(C)C)c1 | 6.88 |  |  | 22600 |  | Not toxic |
| C=CC(=O)[C@H](Cc1ccccc1)NC(=O)[C@H](CC(C)C)NC(=O)c1cc(C)on1 | 6.35 |  |  | 21300 |  |  |
| C=CC(=O)[C@H](Cc1ccccc1)NC(=O)[C@H](CC(C)C)NC(=O)COc1cc(Cl)c(Cl)cc1Cl | 6.87 |  |  | 26500 |  |  |
| C=CC(=O)[C@H](Cc1ccccc1)NC(=O)[C@H](CC(C)C)NC(=O)c1ccc(-c2ccccc2)s1 | 6.74 |  |  | 15500 |  |  |
